Experimental data as given in the NIST ThermoML archive (doi:10.1016/j.fluid.2015.07.030).

Test: xn = mol fraction of the nth substance listed
Settings: 95.99 kPa, Liquid, Vibrating tube method

OCCOCCOCCO [triethylene glycol] + O
mass density [kg/m3]
Settings | 293.15 K | 298.15 K | 303.15 K | 308.15 K | 313.15 K
x2 = 0 | 1123.12 | 1119.01 | 1114.79 | 1110.81 | 1106.7
x2 = 0.1056 | 1122.61 | 1118.31 | 1114.09 | 1109.99 | 1105.84
x2 = 0.2069 | 1121.88 | 1117.53 | 1113.37 | 1109.16 | 1105.25
x2 = 0.3103 | 1120.77 | 1116.52 | 1112.38 | 1108.31 | 1104.34
x2 = 0.4843 | 1118.69 | 1114.57 | 1110.18 | 1106.08 | 1101.98
x2 = 0.5016 | 1118.43 | 1114.12 | 1109.85 | 1105.68 | 1101.69
x2 = 0.5952 | 1116.29 | 1111.83 | 1107.57 | 1103.19 | 1099.18
x2 = 0.6015 | 1116.07 | 1111.61 | 1107.35 | 1102.97 | 1098.96
x2 = 0.6787 | 1112.29 | 1107.99 | 1103.97 | 1099.53 | 1095.62
x2 = 0.7835 | 1102.7 | 1098.52 | 1094.74 | 1090.2 | 1086.93
x2 = 0.8183 | 1096.95 | 1092.99 | 1089.46 | 1084.98 | 1081.89
x2 = 0.8472 | 1090.49 | 1086.81 | 1083.32 | 1078.84 | 1076.08
x2 = 0.8719 | 1083.52 | 1080.07 | 1076.78 | 1072.37 | 1069.93
x2 = 0.8925 | 1076.28 | 1073.04 | 1069.94 | 1065.64 | 1063.47
x2 = 0.9106 | 1068.64 | 1065.62 | 1062.7 | 1058.54 | 1056.6
x2 = 0.9254 | 1061.24 | 1058.41 | 1055.66 | 1051.66 | 1049.89
x2 = 0.9303 | 1058.23 | 1055.05 | 1052.47 | 1049.13 | 1047.41
x2 = 0.939 | 1053.42 | 1050.36 | 1048.08 | 1044.27 | 1042.63
x2 = 0.951 | 1045.41 | 1042.85 | 1040.42 | 1036.82 | 1035.27
x2 = 0.9599 | 1037.69 | 1036.35 | 1034.04 | 1030.61 | 1029.11
x2 = 0.9707 | 1029.87 | 1027.7 | 1025.28 | 1022.68 | 1019.99
x2 = 0.979 | 1021.78 | 1019.75 | 1017.72 | 1014.8 | 1013.28
x2 = 0.9866 | 1013.57 | 1011.61 | 1009.56 | 1007.37 | 1005.16
x2 = 0.9936 | 1005.7 | 1003.82 | 1001.99 | 999.97 | 997.49
